Experiment [1] addresses T1, hZnT1 (Homo sapiens, UniProt Q9Y6M5, I96A).
T1 construct: gene SLC30A1; homodimer (ECD 271-312, CTD 345-507 visible); tags and borders only in supplement; transport assay in HEK-293F cells
T1 sequence (Q9Y6M5 1-507 I96A): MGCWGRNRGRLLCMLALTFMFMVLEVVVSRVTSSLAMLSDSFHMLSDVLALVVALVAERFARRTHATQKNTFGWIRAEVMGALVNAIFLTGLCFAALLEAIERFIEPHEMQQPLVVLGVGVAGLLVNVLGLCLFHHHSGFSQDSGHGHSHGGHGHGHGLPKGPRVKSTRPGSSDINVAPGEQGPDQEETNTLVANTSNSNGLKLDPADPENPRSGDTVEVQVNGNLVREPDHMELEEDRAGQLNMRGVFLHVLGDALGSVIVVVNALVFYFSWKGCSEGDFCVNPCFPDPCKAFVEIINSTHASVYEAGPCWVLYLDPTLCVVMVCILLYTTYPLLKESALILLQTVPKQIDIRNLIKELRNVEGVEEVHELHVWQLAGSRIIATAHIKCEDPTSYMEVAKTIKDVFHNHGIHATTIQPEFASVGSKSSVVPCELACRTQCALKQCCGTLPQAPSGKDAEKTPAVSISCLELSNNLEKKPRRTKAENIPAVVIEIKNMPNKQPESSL
In words: biolayer interferometry (BLI). Particulars: read-out: binding affinity. On the technique in general: In BLI a coated tip is dipped into the sample, and binding shifts an interference pattern.

The target of experiment [2] is T2, hZnT1 (Homo sapiens, UniProt Q9Y6M5, G258A).
T2 construct: gene SLC30A1; homodimer (ECD 271-312, CTD 345-507 visible); tags and borders only in supplement; transport assay in HEK-293F cells
T2 sequence (Q9Y6M5 1-507 G258A): T1 sequence (Q9Y6M5 1-507 I96A) with A96I, G258A
In words: biolayer interferometry (BLI). It counts as binding.

In experiment [3] the target is T3, hZnT1 (Homo sapiens, UniProt Q9Y6M5).
T3 construct: gene SLC30A1; homodimer (ECD 271-312, CTD 345-507 visible); tags and borders only in supplement; transport assay in HEK-293F cells
T3 sequence (Q9Y6M5 1-507): T1 sequence (Q9Y6M5 1-507 I96A) with A96I
The experiment can be described thus: biolayer interferometry (BLI). Particulars: read-out: binding affinity.

Experiment [4] has as its target T3, hZnT1. In words: FluoZin-3 fluorescence Zn2+ transport assay in HEK-293F cells. The class given is cell-based.

Numbering of substitutions follows the chain as printed.

Regarding `COC(=O)[C@]12CCC(C)(C)C[C@H]1[C@H]1C(=O)C=C3[C@@]4(C)C=C(C#N)C(=O)C(C)(C)[C@@H]4CC[C@@]3(C)[C@]1(C)CC2` [Bardoxolone methyl], the Kd in experiment [1] was 58.4 µM; in experiment [3], 2.72 µM. The binding affinity result in experiment [2] was “the mutation of G258A directly led to the affinity to be completely undetectable”. Further, the IC50 (as a rule, the midpoint of a concentration-inhibition curve) in experiment [4] is 18 ± 0.92 µM.

Source of the values: publication PMC12698182, “Bardoxolone methyl blocks the efflux of Zn^2+ by targeting hZnT1 to inhibit the proliferation and metastasis of cervical cancer” (Protein & Cell, 2025).
